In data set [1] the test system is antibody response to sheep blood cells (hemaglutination titer). In words: Immune regulating test: suppression of hemaglutination titer by 4-fold factor in mice (i.p. drug, i.p. sheep blood cells), Tables 1-15. It counts as in vivo, Swiss mice. The settings on record: Mus musculus, ip, 192 h, × 3, intraperitoneal, minimum dose to suppress the hemaglutination titer by a 4-fold factor, 8 days after antigen, read-out: Immuno-Suppressant ED4-Fold. Summed up: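 Groups of five 20-gram Swiss mice received compound i.p. and sheep blood cell antigen i.p.; sera pooled per group eight days after antigen. Hemagglutination titers of pooled sera compared with controls; value is the minimum dose suppressing titer 4-fold versus control.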

For data set [2], the system named is antibody to sheep red blood cells. In words: Oral immunoregulating activity in marmosets (Table 17). The class given is in vivo. The protocol: The animals in the treated group received 10 daily 100 mg/kg doses of the drug by oral gavage. On the 4th treatment day, these animals and a similar group of controls were given intraperitoneal injections of 1×10^9 sheep red blood cells. On the 12th day following antigen injection, serum levels of antibody were determined.
*Notation: Day 0 = day of antigen injection, Day -1 = day previous, Day +

Data set [3] has as its system fatal glomerulonephritis in NZB/w mice. The class given is in vivo. The settings on record: for MST (mean survival time) / Percent Survivors: 300th day. From the text: NZB/w mice provide a close model of the human autoimmune disease, lupus erythematosis. These hybrid mice develop antinuclear antoantibody in the early months of life, which antibody becomes deposited in the glomeruli in the form of a complex with the inciting antigen. A fatal glomerulonephritis ensues. A group of these mice had been placed under continuous therapy (via the feed) with 1-(6-methoxy-2-benzothiazolyl)-3-) phenyl urea for 300 days. The mice were divided into three subgroups, 10 mice receiving 75 mg/kg/day of drug, 10 mice receiving 25 mg/kg/day, and 11 mice serving as untreated controls.
In view of the close parallel of this murine model to the human counterpart, this would appear of significance in terms of long-term human therapy.

For data set [4], the system named is graft versus host reaction. In words: Graft versus host (GVH) reaction, spleen weight (Tables 20, 21). The class given is in vivo, mice (C57BL donors, F1 hybrid C57BL×C3H recipients). The protocol: In this determination, […] (C57BL) mouse spleen cells are injected into mice of an F1 hybrid strain (C57BL×C3H). […] The injected cells, however, mount a reaction to the recipient's tissues due to the foreign C3H-derived antigens. As a consequence, the recipient's spleen becomes enlarged. Immunosuppressive therapy prevents or reduces this enlargement. Thus, spleen weights provide a measure of the GVH reaction and its reduction under immunosuppression.
Treated and GVH control animals receive an intraperitoneal injection of 1.2×10^9 splenic lymphocytes from the C57 donors. Spleens are weighed ten days later. Spleen weights derived from groups of recipient mice receiving genetically homologous, i.e., syngeneic cells (C57BL×C3H) provide normal control values for calculating percent inhibition in drug-treated groups. For example, mice given 13 daily topical doses of 1-(4,5,6,7-tetra-hydro-2-benzothiazolyl)-3-phenyl urea show a 62% reduction in GVH reaction relative to controls, as set forth in Table 20.
Using this procedure, three compounds from the above useful in the processes of this invention have been compared with several reference immunosuppressive drugs. Treatment levels defining the 50 percent inhibitory dose have been determined.

Data set [5] concerns Salmonella typhimurium G46 missense histidine-auxotroph. It counts as cell-based. The settings on record: 750 mcg/ml. The protocol:
Compounds found active in the qualitative test were further tested. The culture to be tested was grown to stationary phase in tryptone yeast broth and then diluted to a viable count of about 9×10^7 organisms per milliliter.
Eleven log4 dilutions of the test compound were made covering a range that would allow survival of nonlethal mutants. The dilutions were made in Spizizen's minimal media with minute amounts of histidine and biotin (20 nM) each in […]. tubes. Each tube contained 3 ml. after dilution. Replicate 1 ml. aliquots of test organism were added to each tube including six "0" drug tubes. Final drug concentrations were calculated from 4-ml. volumes (3 ml. drug dilution +1 ml. test organism). Two of the "0" drug tubes were immediately plated at 10° dilution in minimal medium and 10^-5, 10^-6, 10^-7 dilutions in medium containing excess histidine (40 mcg/ml.) Spontaneous revertants (histidine+) were detected in the 10° dilution. Mutable population (histidine-) were detected in the 10^-5, 10^-6, and 10^-7 dilutions. All remaining dilutions were incubated in a Dubonoff shaker at 37° C. for 4 hr., then iced at 4° C. […] A 1-ml. aliquot from each "0" control was also plated at 10^-6, 10^-7, and 10^-8 dilutions in media with excess histidine to detect growth of mutable population (histidine-); normally there are 3-4 generations of the mutable population. All minimal media plates were counted. A dose response increase in revertants above spontaneous background indicated mutagenic potential of a test compound. […] Lethality has occurred to both populations, histidine+ and histidine-, at the same compound levels in all drugs tested to date.
The results are recorded as mutants test/mutants control.

Data set [6] has the same test system. As to the kind of experiment: Qualitative in vitro prescreen for mutagenicity, G46 indicator (Table 22). The settings on record: 200 mcg disc.
Description: Filter paper discs 1/4" were impregnated with 200 mcg of test compound using either H2 O or DMSO as solvent. The discs were placed on Petri dishes containing minimal media which had been individually seeded with one of the twelve tester strains. […] A uniform circle of colonies appear around the pad when a compound with mutagenic potential is present. The test compound forms a concentration gradient as it diffuses from the pad. Occasionally, there is a clear ring in close proximity to the pad surrounded by a uniform circle of revertant colonies which indicates a lethal mutation at high concentration of compound and nonlethal mutation at lesser concentration. A single pad thus allows one to test a compound over a wide range of concentrations. Histidine+ colonies were developed enough to read after 48 hr. incubation at 37° C. The plates were read as follows:
A. background zone, if present, is measured in millimeters, if not, a negative is recorded (-).
B. mutant zone is measured in millimiters, if present; if not, a negative (-) is recorded.
C. the mutation frequency can be estimated from density of mutant colonies as follows:
1. Low frequency--few colonies
2. Moderate frequency--many colonies
3. High frequency--dense ring of colonies
4. No colonies recorded (-)
The mark [7] stands for this setting: 10 daily 100 mg/kg doses oral, individual marmoset, 100 mg/kg.

Several values for one entry are separate records, joined by “and”; a condition that tells them apart may be missing. Equal entries are not always repeated. Where two headings read alike, the source gives them in different places.

As to `COc1ccc2nc(NC(=O)Nc3ccccc3)sc2c1` [Table 11: phenyl, 6-CH3 O, S, 1-(6-methoxy-2-benzothiazolyl)-3-phenyl urea], in data set [1], the minimal effective dose was less than 25 mg/kg. Moreover, the detectable antibody response result in data set [2] (10 daily 100 mg/kg doses by oral gavage, 12th day following antigen, control four out of five) is “none of the treated marmosets showed a detectable response”. Besides, in data set [2] (setting [7]), the “Weight Change (%) Day +6 to +19” value was -6.8% and +9.1% and +6.0% and +5.7%; the “Weight Change (%) Day -7 to +6” value was -18.8% and -6.2% and -21.4% and -5.7% and -8.2%. In data set [2] (10 daily 100 mg/kg doses oral, individual marmoset, Day 0 = antigen injection), the “Antibody Titer (reciprocal) Day +12” value is listed as less than 5. In addition, in data set [2] (10 daily 100 mg/kg doses oral, treated group), the “animals gaining weight by the 19th day” value is “four of the five animals were gaining weight”. In data set [3] (25 mg/kg/day in feed), the “MST (mean survival time)” value came out at 214 days and the “Percent Survivors” value is 60%. In data set [3] (75 mg/kg/day in feed, 10 mice, 300 days), the “Day of Death” value is given as 180,281. Besides, in data set [3] (75 mg/kg/day in feed), the “MST (mean survival time)” value came to 286 days and the “Percent Survivors” value turned out to be 80%. Moreover, the “effect on survival parameters” value in data set [3] (300 days of therapy, 25 and 75 mg/kg/day) is “A dose-related effect of the drug on survival parameters”. Further, the “effect on life span” value in data set [3] (female NZBxW mice) is “able to prolong the life of female NZBxW mice”. Moreover, the “Percent GVH Inhibition” value in data set [4] (1 mg/kg × 13, s.c.) is reported as 22%. For the same compound, the “Percent GVH Inhibition” value in data set [4] (2 mg/kg × 13, s.c.) is 58%. The “IN VITRO QUANTITATIVE MT/MC” value in data set [5] is given as “.90”. Further, the “IN VITRO QUALITATIVE ACTIVITY” value in data set [6] was “N”.

These data come from patent US4153709A, “N-Heterocyclic ureas as immune regulants” (Eli Lilly and Company, priority 1977, dated 1979).
